Experimental findings from patent US7491723B2, “Alkanol and cycloalkanol-amine derivatives and methods of their use” (Wyeth, priority 2003, dated 2009) are described below.

Where a name gives a salt, the structure may show the parent alone.

By inhibition is commonly meant the share of the control response that was lost under treatment. A higher inhibition goes with a response far below the control.

T1 sequence (P23975 whole entry): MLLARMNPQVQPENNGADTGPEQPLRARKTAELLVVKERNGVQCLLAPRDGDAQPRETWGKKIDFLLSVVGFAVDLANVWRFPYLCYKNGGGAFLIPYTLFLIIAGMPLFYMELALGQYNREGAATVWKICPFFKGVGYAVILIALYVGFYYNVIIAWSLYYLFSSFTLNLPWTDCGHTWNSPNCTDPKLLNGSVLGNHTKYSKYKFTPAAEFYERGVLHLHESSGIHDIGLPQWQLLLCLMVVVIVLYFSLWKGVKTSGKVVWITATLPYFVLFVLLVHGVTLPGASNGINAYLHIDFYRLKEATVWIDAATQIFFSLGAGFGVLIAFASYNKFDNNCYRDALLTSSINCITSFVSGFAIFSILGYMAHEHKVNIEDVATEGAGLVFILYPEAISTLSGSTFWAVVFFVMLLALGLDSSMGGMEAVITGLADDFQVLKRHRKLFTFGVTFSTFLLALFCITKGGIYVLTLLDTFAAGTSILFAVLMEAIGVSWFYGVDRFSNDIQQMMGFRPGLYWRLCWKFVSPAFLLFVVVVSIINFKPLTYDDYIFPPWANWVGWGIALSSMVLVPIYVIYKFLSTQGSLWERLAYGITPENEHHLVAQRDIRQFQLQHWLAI

The first experiment has as its target T1, human hNET (Homo sapiens, UniProt P23975).
T1 construct: expressed in transfected cells
Nature of the experiment: Norepinephrine (NE) uptake assay in MDCK-Net6 cells. It is filed as cell-based. Particulars: at 30 μM test compound, [3H]NE uptake.
`CCC(O)(CC)C(CN1CCN(C)CC1)c1cccc(Cl)c1` (stereo not shown) [Example 94, 2-(3-chlorophenyl)-3-ethyl-1-(4-methylpiperazin-1-yl)pentan-3-ol dihydrochloride] yielded an inhibition at 30 µM of 71%.
`CC(C)(C)C1CCC(O)(C(CN2CCNCC2)c2cccc(Br)c2)CC1` (stereo not shown) [Example 96, 1-[1-(3-bromophenyl)-2-piperazin-1-ylethyl]-4-tert-butylcyclohexanol dihydrochloride] gave an inhibition at 30 µM of 100%.
The compound `OC1(C(CN2CCNCC2)c2cccc(Br)c2)C2CC3CC(C2)CC1C3` (stereo not shown) [Example 107, 2-[1-(3-bromophenyl)-2-piperazin-1-ylethyl]adamantan-2-ol dihydrochloride] displayed an inhibition at 30 µM of 67%.
`OC1(C(CN2CCNCC2)c2cccc(Br)c2)CCOCC1` (stereo not shown) [Example 103, 4-[1-(3-bromophenyl)-2-piperazin-1-ylethyl]tetrahydro-2H-pyran-4-ol dihydrochloride]: 30 µM produced 69% inhibition.
On the same count and under the same terms, the same measure for `CC1(C)CC(C)(C)CC(O)(C(CN2CCNCC2)c2cccc(Br)c2)C1` (stereo not shown) [Example 87, 1-[1-(3-bromophenyl)-2-piperazin-1-ylethyl]-3,3,5,5-tetramethylcyclohexanol dihydrochloride]: 47%; for `CN1CCN(CC(c2cccc(Cl)c2)C2(O)CCC(C(C)(C)C)CC2)CC1` (stereo not shown) [Example 101, 4-tert-butyl-1-[1-(3-chlorophenyl)-2-(4-methylpiperazin-1-yl)ethyl]cyclohexanol dihydrochloride]: 100%; for `COc1ccc(C(CN2CCNCC2)C2(O)CCOCC2)cc1Br` (stereo not shown) [Example 110, 4-[1-(3-bromo-4-methoxyphenyl)-2-piperazin-1-ylethyl]tetrahydro-2H-pyran-4-ol dihydrochloride]: 54%.

The target of another experiment is T1, human hNET. The description is as above. The format is cell-based. To be noted: 1 μM test compound, [3H]NE uptake. The method, then:
MDCK-Net6 cells, stably transfected with human hNET (Pacholczyk, T., R. D. Blakely, and S. G. Amara, Nature, 1991, 350(6316): p. 350-4) were cultured in growth medium containing high glucose DMEM (Gibco, Cat. No. 11995), 10% FBS (dialyzed, heat-inactivated, US Bio-Technologies, Lot FBD1129HI) and 500 μg/ml G418 (Gibco, Cat. No. 10131). Cells were plated at 300,000/T75 flask and cells were split twice weekly. The JAR cell line (human placental choriocarcinoma) was purchased from ATCC (Cat. No. HTB-144). The cells were cultured in growth medium containing RPMI 1640 (Gibco, Cat. No. 72400), 10% FBS (Irvine, Cat. No. 3000), 1% sodium pyruvate (Gibco, Cat. No. 1136) and 0.25% glucose. Cells were plated at 250,000 cells/T75 flask and split twice weekly. For all assays, cells were plated in Wallac 96-well sterile plates (PerkinElmer, Cat. No. 3983498).
On day 1, cells were plated at 3,000 cells/well in growth medium and maintained in a cell incubator (37° C., 5% CO2). On day 2, growth medium was replaced with 200 μl of assay buffer (25 mM HEPES; 120 mM NaCl; 5 mM KCl; 2.5 mM CaCl2; 1.2 mM MgSO4; 2 mg/ml glucose (pH 7.4, 37° C.)) containing 0.2 mg/ml ascorbic acid and 10 μM pargyline. Plates containing cells with 200 μl of assay buffer were equilibrated for 10 minutes at 37° C. prior to addition of compounds. A stock solution of desipramine was prepared in DMSO (10 mM) and delivered to triplicate wells containing cells for a final test concentration of 1 μM. Data from these wells were used to define non-specific NE uptake (minimum NE uptake). Test compounds were prepared in DMSO (10 mM) and diluted in assay buffer according to test range (1 to 10,000 nM). Twenty-five microliters of assay buffer (maximum NE uptake) or test compound were added directly to triplicate wells containing cells in 200 μl of assay buffer. The cells in assay buffer with test compounds were incubated for 20 minutes at 37° C. To initiate the NE uptake, [^3H]NE diluted in assay buffer (120 nM final assay concentration) was delivered in 25 μl aliquots to each well and the plates were incubated for 5 minutes (37° C.). The reaction was terminated by decanting the supernatant from the plate. The plates containing cells were washed twice with 200 μl assay buffer (37° C.) to remove free radioligand. The plates were then inverted, left to dry for 2 minutes, then reinverted and air-dried for an additional 10 minutes. The cells were lysed in 25 μl of 0.25 N NaOH solution (4° C.), placed on a shake table and vigorously shaken for 5 minutes. After cell lysis, 75 μl of scintillation cocktail was added to each well and the plates were sealed with film tape. The plates were returned to the shake table and vigorously shaken for a minimum of 10 minutes to ensure adequate partitioning of organic and aqueous solutions. The plates were counted in a Wallac Microbeta counter (PerkinElmer) to collect the raw cpm data.
For each experiment, a data stream of cpm values collected from the Wallac Microbeta counter was downloaded to a Microsoft Excel statistical application program. Calculations of EC50 values were made using the transformed-both-sides logistic dose response program written by Wyeth Biometrics Department. The statistical program uses mean cpm values from wells representing maximum binding or uptake (assay buffer) and mean cpm values from wells representing minimum binding or uptake ((1 μM desipramine (hNET) or 1 μM paroxetine (hSERT)). Estimation of the EC50 value was completed on a log scale and the line was fit between the maximum and minimum binding or uptake values. All graphic data representation was generated by normalizing each data point to a mean percent based on the maximum and minimum binding or uptake values. The EC50 values reported from multiple experiments were calculated by pooling the raw data from each experiment and analyzing the pooled data as one experiment.
As to `CC1CCC(O)(C(CN2CCN(C)CC2)c2cccc(Cl)c2)CC1` (stereo not shown) [Example 335, 1-[1-(3-chlorophenyl)-2-(4-methylpiperazin-1-yl)ethyl]-4-methylcyclohexanol dihydrochloride], the inhibition at 1 µM came to 49.5%.
Same read-out and setting: the same measure for `CN1CCN(CC(c2cccc(Cl)c2)C(C)(C)O)CC1` (stereo not shown) [Example 276, 3-(3-chlorophenyl)-2-methyl-4-(4-methylpiperazin-1-yl)butan-2-ol dihydrochloride]: 4%.
As for `CN1CCN(CC(c2cccc(Br)c2)C2(O)CC(C)(C)CC(C)(C)C2)CC1` (stereo not shown) [Example 88, 1-[1-(3-bromophenyl)-2-(4-methylpiperazin-1-yl)ethyl]-3,3,5,5-tetramethylcyclohexanol dihydrochloride], the inhibition at 1 µM was 16%.
Still for that read-out and setting: next, `CN1CCN(CC(c2cccc(Cl)c2)C2(O)CCC3CCCCC3C2)CC1` (stereo not shown) [Example 332, 2-[1-(3-chlorophenyl)-2-(4-methypiperazin-1-yl)ethyl]decahydronaphthalen-2-ol dihydrochloride]: 41%; `CCC(O)(CC)C(CN1CCNCC1)c1ccc(OC)c(Br)c1` (stereo not shown) [Example 65, 2-(3-bromo-4-methoxyphenyl)-3-ethyl-1-piperazin-1-ylpentan-3-ol dihydrochloride]: 12%.
In turn, `CC(C)(O)C(CN1CCNCC1)c1cccc(Cl)c1` (stereo not shown) [Example 275, 3-(3-chlorophenyl)-2-methyl-4-piperazin-1-ylbutan-2-ol dihydrochloride] gave an inhibition at 1 µM of 31%.
